Among the data in ChEMBL document CHEMBL1201862, “PubChem BioAssay data set” (2004) are IC50, EC50 and AC50 values, retold here.

The term IC50 denotes the point on the concentration scale where inhibition reaches its midpoint. What is called EC50 is the concentration giving half of the maximal effect. The AC50 is the midpoint of the concentration-response curve, whichever way the signal moves.

Test [1] has as its target T1, Sentrin-specific protease 7 (Homo sapiens, UniProt Q9BQF6).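 Note: Luminescence-based dose-response confirmation of ultra-high-throughput screening hits, measuring inhibition of SENP7.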
T1 sequence (Q9BQF6 whole entry): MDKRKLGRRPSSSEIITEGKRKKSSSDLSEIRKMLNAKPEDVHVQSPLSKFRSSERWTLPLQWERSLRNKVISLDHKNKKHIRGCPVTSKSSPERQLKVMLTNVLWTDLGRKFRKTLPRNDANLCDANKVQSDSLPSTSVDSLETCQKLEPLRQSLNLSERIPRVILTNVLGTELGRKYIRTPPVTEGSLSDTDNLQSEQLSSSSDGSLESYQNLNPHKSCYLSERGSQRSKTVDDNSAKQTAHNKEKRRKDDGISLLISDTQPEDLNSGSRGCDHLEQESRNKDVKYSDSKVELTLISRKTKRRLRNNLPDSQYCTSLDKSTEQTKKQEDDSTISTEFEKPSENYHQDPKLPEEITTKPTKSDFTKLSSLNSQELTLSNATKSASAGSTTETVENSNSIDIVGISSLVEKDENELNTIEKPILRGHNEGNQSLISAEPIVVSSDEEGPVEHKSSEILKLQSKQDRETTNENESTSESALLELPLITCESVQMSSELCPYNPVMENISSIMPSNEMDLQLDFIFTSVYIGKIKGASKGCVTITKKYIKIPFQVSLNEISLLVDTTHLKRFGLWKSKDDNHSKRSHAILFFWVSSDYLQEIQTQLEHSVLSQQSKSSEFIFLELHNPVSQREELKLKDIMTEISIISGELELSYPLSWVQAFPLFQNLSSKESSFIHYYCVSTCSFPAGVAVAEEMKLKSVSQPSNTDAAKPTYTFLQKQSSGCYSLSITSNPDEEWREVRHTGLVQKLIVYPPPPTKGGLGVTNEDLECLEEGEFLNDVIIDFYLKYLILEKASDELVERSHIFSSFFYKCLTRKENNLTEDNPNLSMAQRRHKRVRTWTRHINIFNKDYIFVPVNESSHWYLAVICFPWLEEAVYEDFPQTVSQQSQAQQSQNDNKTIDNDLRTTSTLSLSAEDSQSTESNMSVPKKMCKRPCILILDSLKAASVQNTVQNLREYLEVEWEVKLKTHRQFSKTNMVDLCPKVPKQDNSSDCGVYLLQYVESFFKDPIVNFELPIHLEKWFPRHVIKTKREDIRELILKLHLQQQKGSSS
It is filed as functional.

For test [2], the target named is T2, Sentrin-specific protease 8 (Homo sapiens, UniProt Q96LD8).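 Note: luminescence read-out of SENP8 inhibition, dose-response confirmation following an ultra-high-throughput screen.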
T2 sequence (Q96LD8 whole entry): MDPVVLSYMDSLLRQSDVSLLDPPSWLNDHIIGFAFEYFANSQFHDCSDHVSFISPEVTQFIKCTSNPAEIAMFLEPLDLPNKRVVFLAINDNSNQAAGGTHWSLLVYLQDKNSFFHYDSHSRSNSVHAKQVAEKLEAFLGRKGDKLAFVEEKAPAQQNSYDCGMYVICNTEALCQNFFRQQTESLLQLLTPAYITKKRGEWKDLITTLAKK
Format: functional.

Test [3] addresses T3, Apoptotic protease-activating factor 1 (Homo sapiens, UniProt O14727).
T3 sequence (O14727 whole entry): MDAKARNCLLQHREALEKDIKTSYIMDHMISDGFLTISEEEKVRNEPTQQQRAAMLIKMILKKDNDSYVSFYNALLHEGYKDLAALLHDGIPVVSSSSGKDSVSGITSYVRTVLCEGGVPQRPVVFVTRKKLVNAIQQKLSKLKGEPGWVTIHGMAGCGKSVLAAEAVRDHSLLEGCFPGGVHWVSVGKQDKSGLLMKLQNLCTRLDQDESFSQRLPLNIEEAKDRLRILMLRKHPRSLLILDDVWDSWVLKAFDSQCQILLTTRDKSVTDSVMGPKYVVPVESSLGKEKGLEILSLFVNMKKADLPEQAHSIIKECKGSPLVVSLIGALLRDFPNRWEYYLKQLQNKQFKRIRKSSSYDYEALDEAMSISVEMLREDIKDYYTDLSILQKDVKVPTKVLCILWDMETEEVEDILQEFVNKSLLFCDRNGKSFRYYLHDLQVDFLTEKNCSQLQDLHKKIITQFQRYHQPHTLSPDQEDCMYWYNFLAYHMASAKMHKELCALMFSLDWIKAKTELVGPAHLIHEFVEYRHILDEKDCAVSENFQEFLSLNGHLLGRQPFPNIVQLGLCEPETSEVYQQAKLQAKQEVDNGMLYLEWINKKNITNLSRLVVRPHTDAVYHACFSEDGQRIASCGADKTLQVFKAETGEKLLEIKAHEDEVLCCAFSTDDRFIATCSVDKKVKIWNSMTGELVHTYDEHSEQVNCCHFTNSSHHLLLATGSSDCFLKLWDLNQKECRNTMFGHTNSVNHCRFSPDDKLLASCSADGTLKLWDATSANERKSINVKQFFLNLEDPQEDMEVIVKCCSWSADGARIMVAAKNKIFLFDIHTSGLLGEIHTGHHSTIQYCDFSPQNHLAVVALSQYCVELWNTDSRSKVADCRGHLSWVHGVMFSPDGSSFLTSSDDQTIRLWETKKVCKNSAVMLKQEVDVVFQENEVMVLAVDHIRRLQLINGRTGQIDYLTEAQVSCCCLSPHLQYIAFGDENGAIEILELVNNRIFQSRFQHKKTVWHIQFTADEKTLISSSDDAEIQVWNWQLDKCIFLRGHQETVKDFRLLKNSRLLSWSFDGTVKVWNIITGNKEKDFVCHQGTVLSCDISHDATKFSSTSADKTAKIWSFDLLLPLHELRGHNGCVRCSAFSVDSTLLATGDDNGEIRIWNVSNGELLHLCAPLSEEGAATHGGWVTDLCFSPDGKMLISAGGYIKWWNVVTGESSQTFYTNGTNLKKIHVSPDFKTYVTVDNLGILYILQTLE
It is filed as functional.

In test [4] the target is Heat shock protein HSP 90-alpha (Homo sapiens, UniProt P07900). Kind of test: Luminescence-based dose response biochemical high throughput screening assay for inhibitors of the Heat Shock Protein 90 (HSP90). [Related pubchem assays: 1831 (Summary AID.), 1846 (Confirmation screen.), 1789 (Primary screen.)].
The test system of test [5] is BJ. In words: growth inhibition of engineered Ras-driven BJ cells – cell-based, alamar blue fluorescence, cherrypicked samples, dose response (AID 2631).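 Note: confirmatory dose-response assay in RAS-dependent BJ fibroblasts engineered with TERT, LT and ST, with cytotoxicity read by fluorescence.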 It is filed as functional. The settings on record: Homo sapiens. A general note: Resazurin is reduced to fluorescent resorufin, in cell work by metabolically active cells.
Another test deals with INS1. Kind of test: INS-1E survival protection against cytokine death – cell-based, luminescence, retest, dose response (AID 449756).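 Note: cell death triggered by IL-1 beta plus TNF-alpha plus IFN-gamma mixture; protective hits raise ATP signal compared with cytokine alone wells.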 It is filed as functional. The settings on record: Rattus norvegicus.
The target of test [6] is Transitional endoplasmic reticulum ATPase (Homo sapiens, UniProt P55072, C522A). In words: C522A mutant p97 ATPase inhibitors, dose response, counter-screen for p97 inhibitor project, biochemical, luminescence (AID 1544). For orientation: Counterscreens check selectivity or assay interference.
For test [7], the system named is BJ. In words: cells. The settings on record: Homo sapiens. Format: functional, cell-based.
For test [8], the target named is Transitional endoplasmic reticulum ATPase (Homo sapiens, UniProt P55072). Kind of test: p97 ATPase inhibitors, dose response, biochemical (AID 1534).

Active and inactive are the calls of the source.

Transitional endoplasmic reticulum ATPase (Homo sapiens, UniProt P55072), sequence (P55072 whole entry): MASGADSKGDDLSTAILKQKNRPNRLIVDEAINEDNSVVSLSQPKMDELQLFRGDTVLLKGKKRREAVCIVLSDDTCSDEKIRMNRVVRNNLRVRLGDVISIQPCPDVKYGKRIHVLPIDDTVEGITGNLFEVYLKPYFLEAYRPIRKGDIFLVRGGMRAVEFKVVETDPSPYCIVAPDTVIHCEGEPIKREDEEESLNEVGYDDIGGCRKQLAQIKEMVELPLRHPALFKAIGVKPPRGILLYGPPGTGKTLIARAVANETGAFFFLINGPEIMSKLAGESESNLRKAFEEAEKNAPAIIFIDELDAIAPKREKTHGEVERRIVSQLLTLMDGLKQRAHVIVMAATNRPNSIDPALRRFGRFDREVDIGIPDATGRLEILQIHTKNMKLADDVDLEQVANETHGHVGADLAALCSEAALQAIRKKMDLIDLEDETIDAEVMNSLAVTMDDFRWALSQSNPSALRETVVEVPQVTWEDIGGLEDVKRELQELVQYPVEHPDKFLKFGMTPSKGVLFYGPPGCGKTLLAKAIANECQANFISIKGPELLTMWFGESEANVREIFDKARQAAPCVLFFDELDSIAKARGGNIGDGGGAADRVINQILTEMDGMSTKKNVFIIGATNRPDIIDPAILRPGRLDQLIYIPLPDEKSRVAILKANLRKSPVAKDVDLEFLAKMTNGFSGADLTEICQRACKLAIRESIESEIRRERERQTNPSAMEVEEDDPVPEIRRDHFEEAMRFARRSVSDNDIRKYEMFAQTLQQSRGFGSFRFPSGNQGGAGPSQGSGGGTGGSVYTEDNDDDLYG
Transitional endoplasmic reticulum ATPase (Homo sapiens, UniProt P55072, C522A), sequence (P55072 2-806 C522A limits assumed): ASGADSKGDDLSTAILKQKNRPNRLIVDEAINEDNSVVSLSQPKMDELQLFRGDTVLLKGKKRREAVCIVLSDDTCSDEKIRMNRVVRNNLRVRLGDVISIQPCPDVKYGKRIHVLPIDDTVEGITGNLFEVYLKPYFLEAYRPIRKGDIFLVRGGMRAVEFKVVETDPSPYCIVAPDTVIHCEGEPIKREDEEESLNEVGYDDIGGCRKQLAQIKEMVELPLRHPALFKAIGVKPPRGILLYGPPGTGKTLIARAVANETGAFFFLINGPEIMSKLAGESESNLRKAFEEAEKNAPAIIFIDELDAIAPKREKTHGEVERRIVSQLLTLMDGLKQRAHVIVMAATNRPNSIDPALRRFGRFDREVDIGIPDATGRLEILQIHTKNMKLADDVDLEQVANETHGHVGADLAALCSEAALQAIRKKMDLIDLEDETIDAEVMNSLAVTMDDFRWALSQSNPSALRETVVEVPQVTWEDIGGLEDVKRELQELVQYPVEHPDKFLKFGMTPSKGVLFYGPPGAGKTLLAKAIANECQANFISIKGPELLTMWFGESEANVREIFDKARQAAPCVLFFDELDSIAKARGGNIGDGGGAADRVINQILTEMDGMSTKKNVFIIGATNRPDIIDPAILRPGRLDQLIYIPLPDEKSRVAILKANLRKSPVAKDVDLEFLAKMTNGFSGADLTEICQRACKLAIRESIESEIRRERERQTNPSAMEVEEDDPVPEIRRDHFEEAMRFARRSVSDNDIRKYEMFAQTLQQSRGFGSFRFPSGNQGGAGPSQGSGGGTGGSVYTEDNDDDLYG

Turning to `CCc1ccc(OCC(=O)N/N=C2\CC(=O)c3ccccc32)cc1`, the IC50 in test [1] is > 100 µM (inactive); in [2], 8.49 µM (active); in test [3], 18.5 µM (active).

As to `O=C1c2cc(F)ccc2-n2c1nc1ccccc1c2=O`, the IC50 in [4] is 0.433 µM (active); in test [3], 3.8 µM (active).

With `CCOC(=O)C1=C(c2ccc(OC)cc2)C(=O)c2ccccc2C1=O`, the IC50 in [4] was 0.322 µM (active). Also, the EC50 with BJ [5] is 0.605 µM (active). Further, in the test on INS1, the AC50 is 2.2 µM (active).

Take `O=C1C(=O)c2ccccc2-c2ccccc21` [9,10-PHENANTHRENEQUINONE]: the IC50 in test [6] was > 50 µM (not active); in test [8], > 50 µM (not active); in test [3], 0.549 µM (active). The EC50 with BJ [7] is 5.99 µM (inconclusive); in the test with BJ [5], 2.74 µM (inconclusive). In the test with INS1, the AC50 was 1.01 µM (active).

In the case of `COCCCNC(=O)c1ccc2c3c(onc13)-c1ccccc1C2=O`, the concentration for a half-maximal effect (EC50) in the test on BJ [7] was > 150 µM (not active); with BJ [5] it was 4.11 µM (active). In [3], the IC50 is 15.7 µM (active).

With `CCCCn1c(NC(=O)c2ccccc2Cl)c(C#N)c2nc3ccccc3nc21`, the IC50 was > 50 µM (not active) in [6]; 6.15 µM (active) in test [4]; > 50 µM (not active) in test [8]; 2.96 µM (active) in [1]; 1.99 µM (active) in test [2]; 13.7 µM (active) in test [3].
